Source: patent US20230174488A1 (priority 2020, published 2023)

Target: SARS-CoV-2 M^PRO (Severe acute respiratory syndrome coronavirus 2, UniProt P0DTD1)
Experiment: biochemical
Assay type: biochemical
Conditions: In vitro potency data; 30 min pre-incubation, 25 nM M^pro, 25 µM substrate; listed as INSCoV-601R(lA); read-out: IC50

SMILES | IC50
O=C(NC1CCOC1)[C@H](c1cncnc1)N(C(=O)CCl)c1ccc(-c2cncs2)cc1 (stereo partly drawn) [INSCoV-601R(1A)] | 140 nM

Same assay, conditions: In vitro potency data; 30 min pre-incubation, 25 nM M^pro, 25 µM substrate; listed as INSCoV-601R(lB); read-out: IC50

SMILES | IC50
O=C(NC1CCOC1)[C@H](c1cncnc1)N(C(=O)CCl)c1ccc(-c2cncs2)cc1 (stereo partly drawn) [INSCoV-601R(1B)] | 440 nM

Same assay, conditions: In vitro potency data; 30 min pre-incubation, 25 nM M^pro, 25 µM substrate; read-out: IC50

SMILES | IC50
Cc1ccc(S(=O)(=O)C(C)NC(=O)C(c2cccnc2)N(C(=O)CCl)c2ccc(C(C)(C)C)cc2)cc1 (stereo not drawn) [INSCoV-531] | 12700 nM
CC(C(=O)NC1CCC(F)(F)CC1)(c1cnccn1)N(C(=O)CCl)c1ccc(-c2ccns2)cc1 (single isomer, unassigned) [INSCoV-601N(2), 2-(2-Chloro-N-(4-(isothiazol-5-yl)phenyl)acetamido)-N-(4,4-difluorocyclohexyl)-2-(pyrazin-2-yl)propanamide] | 3490 nM
O=C(NC1CCCCC1)C(c1cccnc1)N(CCc1ccccc1Cl)C(=O)CCl (stereo not drawn) [INSCoV-503D] | 2650 nM
C=CS(=O)(=O)N(c1ccc(C(C)(C)C)cc1)[C@@H](C(=O)NC1CCCCC1)c1cccnc1 [INSCoV-110-1] | 36000 nM
CC1(NC(=O)C(c2cncnc2)N(C(=O)CCl)c2ccc(-c3cnco3)cc2)COC1 (stereo not drawn) [INSCoV-600E, 2-(N-(2-chloroacetyl)-4-oxazol-5-yl-anilino)-N-(3-methyloxetan-3-yl)-2-pyrimidin-5-yl-acetamide] | 570 nM
O=C(NC1CCC(F)(F)CC1)[C@H](c1ccnnc1)N(C(=O)CCl)c1ccc(-c2ccns2)cc1 [INSCoV-601J(2)] | 530 nM
CN(C)C(=O)C1CCCC(NC(=O)C(c2cncnc2)N(C(=O)CCl)c2ccc(-c3cnco3)cc2)C1 (stereo not drawn) [INSCoV-601CA] | 1150 nM
C=C(F)C(=O)N(c1ccc(-c2cncs2)cc1)C(C(=O)NC1CCC(F)(F)CC1)c1cncnc1 (stereo not drawn) [INSCoV-616] | 8360 nM
O=C(NC1CC2(C1)CC(F)(F)C2)C(c1cncnc1)N(C(=O)CCl)c1ccc(-c2cnco2)cc1 (stereo not drawn) [INSCoV-600F] | 530 nM
O=C(NC1CCCCC1)C(c1cccnc1)N(C(=O)CCl)c1ccc(N2CCCC2)cc1 (stereo not drawn) [INSCoV-523] | 980 nM
O=C(NC1CCC(F)(F)CC1)C(c1cncnc1)N(C(=O)CF)c1ccc(-c2cncs2)cc1 (stereo not drawn) [INSCoV-615] | 11400 nM
O=C(NC1CCC(F)(F)CC1)C(c1cncnc1)N(C(=O)CCl)c1ccc(-c2ccno2)cc1 (stereo not drawn) [INSCoV-600J, 2-Chloro-N-(2-((4,4-difluorocyclohexyl)amino)-2-oxo-1-(pyrimidin-5-yl)ethyl)-N-(4-(isoxazol-5-yl)phenyl)acetamide] | 110 nM
O=C(NC1CCCCC1)C(c1cnccn1)N(C(=O)CCl)c1ccc(-c2cnco2)cc1 (stereo not drawn) [INSCoV-501L] | 400 nM
O=C(NC1CCCCC1)C(c1cncnc1)N(C(=O)CCl)c1ccc(-c2cnco2)cc1 (stereo not drawn) [INSCoV-501A, 2-Chloro-N-(2-(Cyclohexylamino)-2-oxo-1-(Pyrimidin-5-yl)Ethyl)-N-(4-(Oxazol-5-yl)Phenyl)Acetamide] | 290 nM
Cc1cc(F)cc(F)c1NC(=O)C(c1cncnc1)N(C(=O)CCl)c1ccc(-c2cnco2)cc1 (stereo not drawn) [INSCoV-600N] | 1060 nM
O=C(NC1CCC(F)(F)CC1)[C@@H](c1cncnc1)N(C(=O)[C@H](F)Cl)c1ccc(-c2ccno2)cc1 (single isomer, unassigned) [INSCoV-614A(1A), 2-Chloro-N-(2-((4,4-difluorocyclohexyl)amino)-2-oxo-1-(pyrimidin-5-yl)ethyl)-2-fluoro-N-(4-(isoxazol-5-yl)phenyl)acetamide] | 6740 nM
C#CC(=O)N(c1ccc(C(C)(C)C)cc1)C(C(=O)NC1CCCCC1)c1cccnc1 (stereo not drawn) [INSCoV-571] | 6280 nM
N#Cc1cc(OC(F)(F)F)ccc1N(C(=O)C(F)Cl)C(C(=O)NC1CCC(F)(F)CC1)c1cncnc1 (mixture of isomers) [INSCoV-517C, 2-Chloro-N-(2-cyano-4-(trifluoromethoxy)phenyl)-N-(2-((4,4-difluorocyclohexyl)amino)-2-oxo-1-(pyrimidin-5-yl)ethyl)-2-fluoroacetamide] | 110 nM
CCS(=O)(=O)N1CCC(NC(=O)C(c2cncnc2)N(C(=O)CCl)c2ccc(-c3cnco3)cc2)CC1 (stereo not drawn) [INSCoV-501H(1)] | 630 nM

SMILES | IC50
CC(C)(C)c1ccc(N(C(=O)CCl)C(C(=O)NC2CCCCC2)c2cncc(O)c2)cc1 (stereo not drawn) [INSCoV-535, N-(4-(Tert-Butyl)Phenyl)-2-Chloro-N-(2-(Cyclohexylamino)-1-(5-Hydroxypyridin-3-yl)-2-Oxoethyl)Acetamide] | 1040 nM
O=C(NC1CCCCC1)C(c1cccnc1)N(CCc1ccccc1F)C(=O)CCl (stereo not drawn) [INSCoV-503G] | 2300 nM
O=C(NC1CCCCC1)C(c1cccnc1)N(C(=O)CCl)c1ccc2ccoc2c1 (stereo not drawn) [INSCoV-576, 2-[Benzofuran-6-yl-(2-chloroacetyl)amino]-N-cyclohexyl-2-(3-pyridyl)acetamide] | 4670 nM
O=C(NC1CCS(=O)(=O)CC1)C(c1cncnc1)N(CCc1cccc(F)c1)C(=O)CCl (stereo not drawn) [INSCoV-558A, 2-Chloro-N-(2-((1,1-Dioxidotetrahydro-2H-Thiopyran-4-yl)Amino)-2-Oxo-1-(Pyrimidin-5-yl)Ethyl)-N-(3-Fluorophenethyl)Acetamide] | 470 nM
COc1ccccc1CN(C(=O)CCl)C(C(=O)NC1CCCCC1)c1cccnc1 (stereo not drawn) [INSCoV-505] | 8650 nM
O=C(NC1CCC(F)(F)CC1)C(c1cncnc1)N(CCc1cccc(F)c1)C(=O)C1CO1 (stereo not drawn) [INSCoV-600Q] | 6980 nM
O=C(NC1CCC(F)(F)CC1)C(c1cncnc1)N(C(=O)C1CO1)c1ccc(-c2cnco2)cc1 (stereo not drawn) [INSCoV-600R] | 12800 nM
O=C(NC1CCC(F)(F)CC1)[C@H](c1cncnc1)N(C(=O)CCl)c1ccc(-c2ccns2)cc1 | 190 nM
Cc1cc(-c2cnco2)ccc1N(C(=O)CCl)C(C(=O)NC1CCCCC1)c1cncnc1 (stereo not drawn) [INSCoV-501G] | 260 nM
O=C(N[C@@H]1CCOC1)[C@@H](c1cncnc1)N(C(=O)CCl)c1ccc(-c2cnco2)cc1 [INSCoV-600C(2B)] | 160 nM
CC(C)(C)c1ccc(N(C(=O)CCl)C(C(=O)NC2CCCCC2)c2cccnc2)cc1 (single isomer, unassigned) [INSCoV-110A(2), 2-(4-tert-butyl-N-(2-chloroacetyl)anilino)-N-cyclohexyl-2-(3-pyridyl)acetamide] | 2150 nM
O=C(NC1CCOC1)C(c1cncnc1)N(C(=O)CCl)c1ccc(-c2cnco2)cc1 (stereo not drawn) [INSCoV-600C] | 220 nM
O=C(NC1CCC(F)(F)CC1)C(c1cnccn1)N(C(=O)CCl)c1ccc(-c2cnco2)cc1 (stereo not drawn) [INSCoV-501S, 2-Chloro-N-(2-((4,4-Difluorocyclohexyl)Amino)-2-Oxo-1-(Pyrazin-2-yl)Ethyl)-N-(4-(Oxazol-5-yl)Phenyl)Acetamide] | 240 nM
O=C(NCCc1ccccc1)C(c1cncnc1)N(C(=O)CCl)c1ccc(-c2cnco2)cc1 (stereo not drawn) [INSCoV-501E] | 600 nM
CC(C)c1cc(F)c(NC(=O)[C@@H](c2cncnc2)N(C(=O)CCl)c2ccc(-c3ccns3)cc2)c(F)c1 [INSCoV-601O] | 3060 nM
O=C(N[C@@H]1CCOC1)C(c1cncnc1)N(C(=O)CCl)c1ccc(-c2cnco2)cc1 (stereo partly drawn) [INSCoV-600C(2)] | 200 nM
O=C(NC1CCC(F)(F)CC1)C(c1cncnc1)N(C(=O)CCl)c1ccc(-c2ccncn2)cc1 (stereo not drawn) [INSCoV-600L, 2-(N-(2-chloroacetyl)-4-pyrimidin-4-yl-anilino)-N-(4,4-difluorocyclohexyl)-2-pyrimidin-5-yl-acetamide] | 450 nM
O=C(N[C@H]1CCOC1)C(c1cncnc1)N(C(=O)CCl)c1ccc(-c2cnco2)cc1 (stereo partly drawn) [INSCoV-600C(1)] | 270 nM
